In patent publication US6573262B2, “Composition and antiviral activity of substituted indoleoxoacetic piperazine derivatives” (priority 2000, dated 2003):

System: HIV-1 single-round infectious reporter virus
Assay: microbe, parasite or virus in culture
Assay type: cell-based
Settings: for EC50: Human immunodeficiency virus 1, HeLa-CD4/CCR5, 72 h, read-out: EC50 Group from Table 1; for inhibition at 10 µM: Human immunodeficiency virus 1, HeLa-CD4/CCR5, read-out: % Inhibition @ 10 uM

Structure (SMILES)	EC50	inhibition at 10 µM
CNC(=O)c1nc(-c2ccc(F)c3c(C(=O)C(=O)N4CCN(C(=O)c5ccccc5)CC4)c[nH]c23)no1 [Example 102]	< 1000 nM	–
COc1ccc(-c2nccs2)c2[nH]cc(C(=O)C(=O)N3CCN(C(=O)c4ccccc4)CC3)c12 [Example 15]	< 1000 nM	> 98%
O=C(C(=O)N1CCN(C(=O)c2ccccc2)CC1)c1c[nH]c2c(-c3nnc(C(Cl)(Cl)Cl)o3)ccc(F)c12 [Example 193]	< 1000 nM	–
CNC(=O)c1cccc2c(C(=O)C(=O)N3CCN(C(=O)c4ccccc4)C[C@H]3C)c[nH]c12 [Example 64]	< 1000 nM	> 98%
CNC(=O)c1cc(-c2ccc(F)c3c(C(=O)C(=O)N4CCN(C(=O)c5ccccc5)CC4)c[nH]c23)[nH]n1 [Example 89]	< 1000 nM	–
C[C@@H]1CN(C(=O)c2ccccc2)CCN1C(=O)C(=O)c1c[nH]c2c(-c3noc(NC4CCCC4)n3)ccc(F)c12 [Example 162]	< 1000 nM	–
Nc1nc(-c2ccc(F)c3c(C(=O)C(=O)N4CCN(C(=O)c5ccccn5)CC4)c[nH]c23)no1 [Example 189]	< 1000 nM	–
N=C(NC1CC1)c1ccc(F)c2c(C(=O)C(=O)N3CCN(C(=O)c4ccccc4)CC3)c[nH]c12 [Example 75]	< 1000 nM	> 98%
COc1ccc(-c2ccccn2)c2[nH]cc(C(=O)C(=O)N3CCN(C(=O)c4ccccc4)CC3)c12 [Example 7]	< 1000 nM	> 98%
O=C(C(=O)N1CCN(C(=O)c2ccccc2)CC1)c1c[nH]c2c(-c3ccc(Cl)s3)ccc(F)c12 [Example 16]	< 1000 nM	> 98%
O=C(C(=O)N1CCN(C(=O)c2ccccc2)CC1)c1c[nH]c2c(-c3noc(NC4CC4)n3)ccc(F)c12 [Example 82]	< 1000 nM	> 98%
O=C(C(=O)N1CCN(C(=O)c2ccccc2F)CC1)c1c[nH]c2c(-c3ncon3)ccc(F)c12 [Example 150C]	< 1000 nM	–
CNC(=O)Cn1cnc(-c2ccc(F)c3c(C(=O)C(=O)N4CCN(C(=O)c5ccccc5)CC4)c[nH]c23)n1 [Example 145]	< 1000 nM	–
COc1nc(-c2ccc(F)c3c(C(=O)C(=O)N4CCN(C(=O)c5ccccc5)CC4)c[nH]c23)no1 [Example 29]	< 1000 nM	> 98%
O=C(NCCc1c[nH]cn1)c1ccc(F)c2c(C(=O)C(=O)N3CCN(C(=O)c4ccccc4)CC3)c[nH]c12 [Example 49]	< 1000 nM	> 98%
C[C@@H]1CN(C(=O)c2ccccc2)CCN1C(=O)C(=O)c1c[nH]c2c(-c3ncon3)ccc(F)c12 [Example 181]	< 1000 nM	–
CS(=O)(=O)NC(=O)c1cccc2c(C(=O)C(=O)N3CCN(C(=O)c4ccccc4)CC3)c[nH]c12 [Example 61]	1000 to 5000 nM	75%
C[C@@H]1CN(C(=O)c2ccccc2)CCN1C(=O)C(=O)c1c[nH]c2c(-c3nn[nH]n3)ccc(F)c12 [Example 33]	< 1000 nM	> 98%
O=C(C(=O)N1CCN(C(=O)c2ccccc2)CC1)c1c[nH]c2c(-c3nnn(CCO)n3)ccc(F)c12 [Example 112]	< 1000 nM	–
COc1ccc(/C=N/O)c2[nH]cc(C(=O)C(=O)N3CCN(C(=O)c4ccccc4)CC3)c12 [Example 124]	< 1000 nM	–
O=C(C(=O)N1CCN(C(=O)c2ccccc2)CC1)c1c[nH]c2c(-c3nnco3)ccc(F)c12 [Example 93]	< 1000 nM	–

Structure (SMILES)	EC50	inhibition at 10 µM
CC(=O)Nc1nc(-c2ccc(F)c3c(C(=O)C(=O)N4CCN(C(=O)c5ccccc5)CC4)c[nH]c23)no1 [Example 96]	< 1000 nM	–
CNC(=O)c1c[nH]c(-c2ccc(F)c3c(C(=O)C(=O)N4CCN(C(=O)c5ccccc5)CC4)c[nH]c23)n1 [Example 147]	< 1000 nM	–
CSc1ccccc1-c1ccc(F)c2c(C(=O)C(=O)N3CCN(C(=O)c4ccccc4)CC3)c[nH]c12 [Example 2]	< 1000 nM	> 98%
O=C(C(=O)N1CCN(C(=O)c2ccccc2)CC1)c1c[nH]c2c(-c3nc[nH]n3)ccc(F)c12 [Example 111]	< 1000 nM	–
CC(C)(C)NC(=O)NNC(=O)c1ccc(F)c2c(C(=O)C(=O)N3CCN(C(=O)c4ccccc4)CC3)c[nH]c12 [Example 133]	< 1000 nM	–
O=C(C(=O)N1CCN(C(=O)c2ccccc2)CC1)c1c[nH]c2c(-c3cncnc3)ccc(F)c12 [Example 9]	< 1000 nM	> 98%
CC(C)(C)OC(=O)N1C=NNC(c2ccc(F)c3c(C(=O)C(=O)N4CCN(C(=O)c5ccccc5)CC4)c[nH]c23)=N1 [Example 132]	< 1000 nM	–
CS(=O)(=O)NC(=O)c1ccc(F)c2c(C(=O)C(=O)N3CCN(C(=O)c4ccccc4)CC3)c[nH]c12 [Example 60]	< 1000 nM	> 98%
CCC(C)Nc1nc(-c2ccc(F)c3c(C(=O)C(=O)N4CCN(C(=O)c5ccccc5)C[C@H]4C)c[nH]c23)no1 (some centres unmarked) [Example 160]	< 1000 nM	–
COC(=O)c1nc(-c2ccc(F)c3c(C(=O)C(=O)N4CCN(C(=O)c5ccccc5)C[C@H]4C)c[nH]c23)no1 [Example 182]	< 1000 nM	–
Cc1nc(-c2ccc(F)c3c(C(=O)C(=O)N4CCN(C(=O)c5ccccc5)CC4)c[nH]c23)no1 [Example 80]	< 1000 nM	> 98%
O=C(C(=O)N1CCN(C(=O)c2ccccc2)CC1)c1c[nH]c2c(C(=O)N3CCN(C(=O)c4ccccc4)CC3)ccc(F)c12 [Example 69]	< 1000 nM	> 98%
O=C(C(=O)N1CCN(C(=O)c2ccccc2)CC1)c1c[nH]c2c(-c3cnco3)ccc(F)c12 [Example 17]	< 1000 nM	> 98%
O=C(C(=O)N1CCN(C(=O)c2ccccn2)CC1)c1c[nH]c2c(-c3nnn(C(F)F)n3)ccc(F)c12 [Example 149]	< 1000 nM	–
CC(C)(C)OC(=O)NNC(=O)c1ccc(F)c2c(C(=O)C(=O)N3CCN(C(=O)c4ccccc4)CC3)c[nH]c12 [Example 91]	< 1000 nM	–
NC(=O)c1nc(-c2ccc(F)c3c(C(=O)C(=O)N4CCN(C(=O)c5ccccc5)CC4)c[nH]c23)no1 [Example 103]	< 1000 nM	–
COC(=O)Cn1nnc(-c2ccc(F)c3c(C(=O)C(=O)N4CCN(C(=O)c5ccccc5)CC4)c[nH]c23)n1 [Example 22]	< 1000 nM	> 98%
O=C(NCCN1CCOCC1)c1ccc(F)c2c(C(=O)C(=O)N3CCN(C(=O)c4ccccc4)CC3)c[nH]c12 [Example 52]	< 1000 nM	> 98%
COc1ccc(-c2cc3ccccc3s2)c2[nH]cc(C(=O)C(=O)N3CCN(C(=O)c4ccccc4)CC3)c12 [Example 19]	< 1000 nM	> 98%
COC(=O)Cc1nc(-c2ccc(F)c3c(C(=O)C(=O)N4CCN(C(=O)c5ccccc5)CC4)c[nH]c23)no1 [Example 98]	< 1000 nM	–
C[C@@H]1CN(C(=O)c2ccccc2)CCN1C(=O)C(=O)c1c[nH]c2c(C(=O)NCCN3CCOCC3)ccc(F)c12 [Example 177]	< 1000 nM	–

Structure (SMILES)	EC50	inhibition at 10 µM
NC(=O)c1ccc(F)c2c(C(=O)C(=O)N3CCN(C(=O)c4ccccn4)CC3)c[nH]c12 [Example 184]	< 1000 nM	–
O=C(C(=O)N1CCN(C(=O)c2ccccc2)CC1)c1c[nH]c2c(-c3noc(CCl)n3)ccc(F)c12 [Example 97]	< 1000 nM	–
CNc1nc(-c2ccc(F)c3c(C(=O)C(=O)N4CCN(C(=O)c5ccccc5)CC4)c[nH]c23)no1 [Example 157]	< 1000 nM	–
CCNC(=O)c1cccc2c(C(=O)C(=O)N3CCN(C(=O)c4ccccc4)C[C@H]3C)c[nH]c12 [Example 67]	< 1000 nM	> 98%
O=C(C(=O)N1CCN(C(=O)c2ccccc2)CC1)c1c[nH]c2c(-n3cccn3)ccc(F)c12 [Example 116]	< 1000 nM	–
NCCNC(=O)c1ccc(F)c2c(C(=O)C(=O)N3CCN(C(=O)c4ccccc4)CC3)c[nH]c12 [Example 154]	< 1000 nM	–
O=C(C(=O)N1CCN(C(=O)c2c(F)cccc2F)CC1)c1c[nH]c2c(-c3ncon3)ccc(F)c12 [Example 150B]	< 1000 nM	–
O=C(O)c1cc(-c2ccc(F)c3c(C(=O)C(=O)N4CCN(C(=O)c5ccccc5)CC4)c[nH]c23)on1 [Example 90]	< 1000 nM	–
O=C(C(=O)N1CCN(C(=O)c2ccccc2)CC1)c1c[nH]c2c(-n3ccnc3)ccc(F)c12 [Example 117]	< 1000 nM	–
CCN(CC)CCn1nnc(-c2ccc(F)c3c(C(=O)C(=O)N4CCN(C(=O)c5ccccc5)CC4)c[nH]c23)n1 [Example 114]	< 1000 nM	–
Nc1cccc(C(=O)N2CCN(C(=O)C(=O)c3c[nH]c4c(-c5ncon5)ccc(F)c34)CC2)c1 [Example 151]	< 1000 nM	–
O=C(C(=O)N1CCN(C(=O)c2ccccc2)CC1)c1c[nH]c2c(/C=N/O)ccc(F)c12 [Example 30]	< 1000 nM	> 98%
Cn1nnc(-c2ccc(F)c3c(C(=O)C(=O)N4CCN(C(=O)c5ccccc5)CC4)c[nH]c23)n1 [Example 21]	< 1000 nM	> 98%
O=C(C(=O)N1CCN(C(=O)c2ccccc2)CC1)c1c[nH]c2c(-c3noc(=O)[nH]3)ccc(F)c12 [Example 28]	< 1000 nM	> 98%
CCN(CC)CCNC(=O)c1cccc2c(C(=O)C(=O)N3CCN(C(=O)c4ccccc4)C[C@H]3C)c[nH]c12 [Example 66]	< 1000 nM	98%
C[C@@H]1CN(C(=O)c2ccccc2)CCN1C(=O)C(=O)c1c[nH]c2c(C(=O)N3CCN(Cc4ccccc4)CC3)cccc12 [Example 68]	< 1000 nM	> 98%
O=C(C(=O)N1CCN(C(=O)c2ccccc2)CC1)c1c[nH]c2c(-c3nnn(CCN4C(=O)c5ccccc5C4=O)n3)ccc(F)c12 [Example 113]	< 1000 nM	–
COc1ccc(-c2ncon2)c2[nH]cc(C(=O)C(=O)N3CCN(C(=O)c4ccccc4)CC3)c12 [Example 126]	< 1000 nM	–
C[C@@H]1CN(C(=O)c2ccccc2)CCN1C(=O)C(=O)c1c[nH]c2c(-c3noc(NCCN4CCOCC4)n3)ccc(F)c12 [Example 159]	< 1000 nM	–
O=C(C(=O)N1CCN(C(=O)c2ccccc2)CC1)c1c[nH]c2c(-c3nc4cnccc4[nH]3)ccc(F)c12 [Example 164]	< 1000 nM	–
O=C(C(=O)N1CCN(C(=O)c2ccccc2)CC1)c1c[nH]c2c(-c3nnn(Cc4ccccc4)n3)ccc(F)c12 [Example 25]	< 1000 nM	> 98%
